Measurements as given in ChEMBL document CHEMBL3885881, “DrugMatrix”.

Species: Rattus norvegicus
Experiment: DrugMatrix - Regimen: Daily Repeat
Assay type: toxicity, organism-based, Sprague-Dawley
Parameters: regimen Daily Repeat, gender Male, age 6-8 weeks
Details: in vivo, po, route oral GAVAGE, […]; for ABSOLUTE BASOPHIL / ABSOLUTE EOSINOPHIL / ABSOLUTE LYMPHOCYTE / ABSOLUTE MONOCYTE / ABSOLUTE SEGMENTED NEUTROPHIL / BASOPHIL / EOSINOPHIL / ERYTHROCYTE COUNT / HEMATOCRIT / HEMOGLOBIN / LEUKOCYTE COUNT / LYMPHOCYTE / MEAN CORPUSCULAR HEMOGLOBIN / MEAN CORPUSCULAR HEMOGLOBIN CONCENTRATION / MEAN CORPUSCULAR VOLUME / MONOCYTE / NEUTROPHIL / NUCLEATED RED BLOOD CELLS / PLATELET COUNT: tissue Blood; for ALANINE AMINOTRANSFERASE / ALBUMIN / ALKALINE PHOSPHATASE / ASPARTATE AMINOTRANSFERASE / BLOOD UREA NITROGEN / CARBON DIOXIDE / CHLORIDE / CHOLESTEROL / CREATINE PHOSPHOKINASE / CREATININE / GLUCOSE / LACTATE DEHYDROGENASE / LIPASE / PHOSPHORUS / POTASSIUM / SODIUM / TOTAL BILIRUBIN / TOTAL PROTEIN / URIC ACID: tissue Plasma
[1] = 12 mg/kg, 120 h, dose level Low, time 5 day
[2] = 75 mg/kg, 72 h, dose level High, time 3 day
[3] = 75 mg/kg, 120 h, dose level High, time 5 day

`CO[C@H]1/C=C/O[C@@]2(C)Oc3c(C)c(O)c4c(O)c(c(/C=N/N5CCN(C6CCCC6)CC5)c(O)c4c3C2=O)NC(=O)/C(C)=C\C=C\[C@H](C)[C@H](O)[C@@H](C)[C@@H](O)[C@@H](C)[C@H](OC(C)=O)[C@@H]1C` [RIFAPENTINE] was tested, and the “ABSOLUTE BASOPHIL” value [1] was 0 CELLS/uL, the “ABSOLUTE EOSINOPHIL” value [1] was 0 CELLS/uL and the “ABSOLUTE LYMPHOCYTE” value [1] was 14120.67 CELLS/uL. The “ABSOLUTE MONOCYTE” value [1] was 159.67 CELLS/uL, the “ABSOLUTE SEGMENTED NEUTROPHIL” value [1] was 1686.33 CELLS/uL and the BASOPHIL [1] was 0%. For the same compound, the EOSINOPHIL [1] was 0%, the “ERYTHROCYTE COUNT” value [1] was 5.71 x10E6/uL and the HEMATOCRIT [1] was 35.8%. For the same compound, the HEMOGLOBIN [1] was 13.33 G/DL, the “LEUKOCYTE COUNT” value [1] was 15.97 x10E3/uL and the LYMPHOCYTE [1] was 88.33%. For the same compound, the “MEAN CORPUSCULAR HEMOGLOBIN” value [1] was 23.4 pg, the “MEAN CORPUSCULAR HEMOGLOBIN CONCENTRATION” value [1] was 37.3 G/DL and the “MEAN CORPUSCULAR VOLUME” value [1] was 62.73 fL. The MONOCYTE [1] was 1%, the NEUTROPHIL [1] was 10.67% and the “NUCLEATED RED BLOOD CELLS” value [1] was 0 /100WBC. For the same compound, the “PLATELET COUNT” value [1] was 1349 x10E3/uL, the “ALANINE AMINOTRANSFERASE” value [1] was 49.33 u/L and the ALBUMIN [1] was 4.07 G/DL. The “ALKALINE PHOSPHATASE” value [1] was 549.33 u/L, the “ASPARTATE AMINOTRANSFERASE” value [1] was 91.67 u/L and the “BLOOD UREA NITROGEN” value [1] was 16 mg/dL. For the same compound, the “CARBON DIOXIDE” value [1] was 28 mmol/L, the CHLORIDE [1] was 102.67 MEQ/L and the CHOLESTEROL [1] was 54.33 mg/dL. The “CREATINE PHOSPHOKINASE” value [1] was 385.33 u/L, the CREATININE [1] was 0.16 mg/dL and the GLUCOSE [1] was 167.67 mg/dL. The “LACTATE DEHYDROGENASE” value [1] was 391.67 u/L, the LIPASE [1] was 9.67 u/L and the PHOSPHORUS [1] was 11.2 mg/dL. For the same compound, the POTASSIUM [1] was 6.39 MEQ/L, the SODIUM [1] was 142.5 MEQ/L and the “TOTAL BILIRUBIN” value [1] was 0.3 mg/dL. The “TOTAL PROTEIN” value [1] was 5.9 G/DL, the “URIC ACID” value [1] was 1.7 mg/dL and the “ABSOLUTE BASOPHIL” value [2] was 0 CELLS/uL. The “ABSOLUTE EOSINOPHIL” value [2] was 0 CELLS/uL, the “ABSOLUTE LYMPHOCYTE” value [2] was 7973.67 CELLS/uL and the “ABSOLUTE MONOCYTE” value [2] was 130.33 CELLS/uL. The “ABSOLUTE SEGMENTED NEUTROPHIL” value [2] was 596 CELLS/uL, the BASOPHIL [2] was 0% and the EOSINOPHIL [2] was 0%. For the same compound, the “ERYTHROCYTE COUNT” value [2] was 5.11 x10E6/uL, the HEMATOCRIT [2] was 32.07% and the HEMOGLOBIN [2] was 12.17 G/DL. For the same compound, the “LEUKOCYTE COUNT” value [2] was 8.7 x10E3/uL, the LYMPHOCYTE [2] was 92% and the “MEAN CORPUSCULAR HEMOGLOBIN” value [2] was 23.8 pg. For the same compound, the “MEAN CORPUSCULAR HEMOGLOBIN CONCENTRATION” value [2] was 37.97 G/DL, the “MEAN CORPUSCULAR VOLUME” value [2] was 62.73 fL and the MONOCYTE [2] was 1.33%. For the same compound, the NEUTROPHIL [2] was 6.67%, the “NUCLEATED RED BLOOD CELLS” value [2] was 0 /100WBC and the “PLATELET COUNT” value [2] was 1158.67 x10E3/uL. For the same compound, the “ALANINE AMINOTRANSFERASE” value [2] was 71.33 u/L, the ALBUMIN [2] was 4.07 G/DL and the “ALKALINE PHOSPHATASE” value [2] was 536.33 u/L. For the same compound, the “ASPARTATE AMINOTRANSFERASE” value [2] was 84.33 u/L, the “BLOOD UREA NITROGEN” value [2] was 11 mg/dL and the “CARBON DIOXIDE” value [2] was 29.33 mmol/L. For the same compound, the CHLORIDE [2] was 104.33 MEQ/L, the CHOLESTEROL [2] was 73 mg/dL and the “CREATINE PHOSPHOKINASE” value [2] was 243 u/L. The CREATININE [2] was 0.1 mg/dL, the GLUCOSE [2] was 158.33 mg/dL and the “LACTATE DEHYDROGENASE” value [2] was 88 u/L. The LIPASE [2] was 8.67 u/L, the PHOSPHORUS [2] was 11.53 mg/dL and the POTASSIUM [2] was 6.14 MEQ/L. For the same compound, the SODIUM [2] was 147.17 MEQ/L, the “TOTAL BILIRUBIN” value [2] was 0.6 mg/dL and the “TOTAL PROTEIN” value [2] was 5.77 G/DL. For the same compound, the “URIC ACID” value [2] was 1.13 mg/dL, the “ABSOLUTE BASOPHIL” value [3] was 0 CELLS/uL and the “ABSOLUTE EOSINOPHIL” value [3] was 83.33 CELLS/uL. For the same compound, the “ABSOLUTE LYMPHOCYTE” value [3] was 14410.33 CELLS/uL, the “ABSOLUTE MONOCYTE” value [3] was 288.33 CELLS/uL and the “ABSOLUTE SEGMENTED NEUTROPHIL” value [3] was 1718 CELLS/uL. The BASOPHIL [3] was 0%, the EOSINOPHIL [3] was 0.67% and the “ERYTHROCYTE COUNT” value [3] was 6.37 x10E6/uL. The HEMATOCRIT [3] was 38.63%, the HEMOGLOBIN [3] was 14 G/DL and the “LEUKOCYTE COUNT” value [3] was 16.5 x10E3/uL. For the same compound, the LYMPHOCYTE [3] was 87%, the “MEAN CORPUSCULAR HEMOGLOBIN” value [3] was 21.97 pg and the “MEAN CORPUSCULAR HEMOGLOBIN CONCENTRATION” value [3] was 36.2 G/DL. The “MEAN CORPUSCULAR VOLUME” value [3] was 60.67 fL, the MONOCYTE [3] was 1.67% and the NEUTROPHIL [3] was 10.67%. For the same compound, the “NUCLEATED RED BLOOD CELLS” value [3] was 0 /100WBC, the “PLATELET COUNT” value [3] was 1299.67 x10E3/uL and the “ALANINE AMINOTRANSFERASE” value [3] was 72 u/L. The ALBUMIN [3] was 4.13 G/DL, the “ALKALINE PHOSPHATASE” value [3] was 446.67 u/L and the “ASPARTATE AMINOTRANSFERASE” value [3] was 99.33 u/L. The “BLOOD UREA NITROGEN” value [3] was 13.67 mg/dL, the “CARBON DIOXIDE” value [3] was 27.67 mmol/L and the CHLORIDE [3] was 101 MEQ/L. For the same compound, the CHOLESTEROL [3] was 39 mg/dL, the “CREATINE PHOSPHOKINASE” value [3] was 886.67 u/L and the CREATININE [3] was 0.13 mg/dL. The GLUCOSE [3] was 164 mg/dL, the “LACTATE DEHYDROGENASE” value [3] was 219.67 u/L and the LIPASE [3] was 7.67 u/L. The PHOSPHORUS [3] was 11.07 mg/dL, the POTASSIUM [3] was 6.28 MEQ/L and the SODIUM [3] was 141.1 MEQ/L. The “TOTAL BILIRUBIN” value [3] was 0.4 mg/dL, the “TOTAL PROTEIN” value [3] was 5.87 G/DL and the “URIC ACID” value [3] was 1.47 mg/dL.
